According to US20090270443A1, “1-AMINO IMIDAZO-CONTAINING COMPOUNDS AND METHODS” (priority 2004, published 2009):

melting point [°C]	Structure (SMILES)
240 to 242	Cc1nc(N)c2nc(C)n(NC3CCOCC3)c2c1C [Example 32, 2,6,7-Trimethyl-N^1-(tetrahydropyran-4-yl)-1H-imidazo[4,5-c]pyridine-1,4-diamine]
211 to 213	Cc1nc(N)c2nc(CO)n(NC3CCC3)c2c1C [Example 24, (4-Amino-1-cyclobutylamino-6,7-dimethyl-1H-imidazo[4,5-c]pyridin-2-yl)methanol]
> 250	Cc1nc(N)c2nc(CO)n(NC3CCOCC3)c2c1C [Example 26, [4-Amino-6,7-dimethyl-1-(tetrahydropyran-4-yl)amino-1H-imidazo[4,5-c]pyridin-2-yl]methanol]
150 to 155	CCOCc1nc2c(N)nc(C)c(C)c2n1NCCCS(C)(=O)=O [Example 39, 2-(Ethoxymethyl)-6,7-dimethyl-N^1-[3-(methylsulfonyl)propyl]-1H-imidazo[4,5-c]pyridine-1,4-diamine]
147 to 149	CCOCc1nc2c(N)nc(C)c(C)c2n1NCc1cccnc1 [Example 19, 2-Ethoxymethyl-6,7-dimethyl-N^1-(pyridin-3-yl)methyl-1H-imidazo[4,5-c]pyridine-1,4-diamine]
215 to 217	Cc1nc(N)c2nc(C)n(NCCCNS(C)(=O)=O)c2c1C [Example 15, N-{3-[(4-Amino-2,6,7-trimethyl-1H-imidazo[4,5-c]pyridin 1-yl)amino]propyl}methanesulfonamide]
139 to 141	CCOCc1nc2c(N)nc(C)c(C)c2n1NC1CCC1 [Example 23, N^1-Cyclobutyl-2-ethoxymethyl-6,7-dimethyl-1H-imidazo[4,5-c]pyridine-1,4-diamine]
170 to 171	CCOCc1nc2c(N)nc(C)c(C)c2n1N(C)C [Example 9, 2-(Ethoxymethyl)-N^1,N^1,6,7-tetramethyl-1H-imidazo[4,5-c]pyridine-1,4-diamine]
108 to 110	CCOCc1nc2c(N)nc(C)c(C)c2n1NC1CCCCC1 [Example 17, N^1-Cyclohexyl-2-ethoxymethyl-6,7-dimethyl-1H-imidazo[4,5-c]pyridine-1,4-diamine]
169 to 171	CCOCc1nc2c(N)nc3cccnc3c2n1NCc1ccccc1 [Example 34, N^1-Benzyl-2-ethxoymethyl-1H-imidazo[4,5-c][1,5]naphthyridine-1,4-diamine]
259 to 261	Cc1nc(N)c2ncn(NC3CCCCC3)c2c1C [Example 30, N^1-Cyclohexyl-6,7-dimethyl-1H-imidazo[4,5-c]pyridine-1,4-diamine]
258 to 260	Cc1nc(N)c2nc(CO)n(NCc3cccnc3)c2c1C [Example 20, [4-Amino-6,7-dimethyl-1-(pyridin-3-yl)methylamino-1H-imidazo[4,5-c]pyridin-2-yl]methanol]
191 to 193	CCc1nc2c(N)nc(C)c(C)c2n1NC1CCOCC1 [Example 48, 2-Ethyl-6,7-dimethyl-N^1-(tetrahydropyran-4-yl)-1H-imidazo[4,5-c]pyridine-1,4-diamine]
257 to 259	Cc1nc(N)c2nc(CO)n(NC(C)C)c2c1C [Example 12, (4-Amino-1-isopropylamino-6,7-dimethyl-1H-imidazo[4,5-c]pyridin-2-yl)methanol]
119 to 121	CCOCc1nc2c(N)ncc(C)c2n1NC(C)C [Example 2, 2-(Ethoxymethyl)-N^1-isopropyl-7-methyl-1H-imidazo[4,5-c]pyridine-1,4-diamine]
191 to 193	CCOCc1nc2c(N)nc3cccnc3c2n1NC1CCOCC1 [Example 37, 2-Ethxoymethyl-N^1-(tetrahydro-2H-pyran-4-yl)-1H-imidazo[4,5-c][1,5]naphthyridine-1,4-diamine]
176 to 178	CCc1nc2c(N)nc3cccnc3c2n1NCCCNS(C)(=O)=O [Example 8, N-{3-[(4-amino-2-ethyl-1H-imidazo[4,5-c][1,5]naphthyridin-1-yl)amino]propyl}methanesulfonamide]
203 to 205	CCOCc1nc2c(N)nc(C)c(C)c2n1NCCCNC(=O)NC(C)C [Example 16, 1-{3-[(4-Amino-2-ethoxymethyl-6,7-dimethyl-1H-imidazo[4,5-c]pyridin-1-yl)amino]propyl}-3-isopropylurea]
127 to 131	CCOCc1nc2c(N)nc(C)c(C)c2n1NC1CCN(S(C)(=O)=O)CC1 [Example 40, 2-(Ethoxymethyl)-6,7-dimethyl-N^1-[1-(methylsulfonyl)piperidin-4-yl]-1H-imidazo[4,5-c]pyridine-1,4-diamine]
130 to 133	CCOCc1nc2cnc3cccnc3c2n1NC1CCOCC1 [Example 36, 2-Ethxoymethyl-N-(tetrahydro-2H-pyran-4-yl)-1H-imidazo[4,5-c][1,5]naphthyridin-1-amine]
242 to 243	CC(C)Nn1c(CO)nc2c(N)nc3cccnc3c21 [Example 6, [4-Amino-1-(isopropylamino)-1H-imidazo[4,5-c][1,5]naphthyridin-2-yl]methanol]
203 to 205	Cc1nc(N)c2nc(C)n(NC(C)C)c2c1C [Example 11, N^1-Isopropyl-2,6,7-trimethyl-1H-imidazo[4,5-c]pyridine-1,4-diamine]
237 to 239	Nc1nc2cccnc2c2c1nc(CO)n2NCc1ccccc1 [Example 35, (4-Amino-1-benzylamino-1H-imidazo[4,5-c][1,5]naphthyridin-2-yl)methanol]
147 to 149	CCOCc1nc2c(N)nc(C)c(C)c2n1NCCCNS(C)(=O)=O [Example 13, N-{3-[(4-Amino-2-ethoxymethyl-6,7-dimethyl-1H-imidazo[4,5-c]pyridin-1-yl)amino]propyl}methanesulfonamide]
190 to 192	Cc1nc(N)c2nc(CCO)n(NC3CCOCC3)c2c1C [Example 50, 2-[4-Amino-6,7-dimethyl-1-(tetrahydropyran-4-yl)amino-1H-imidazo[4,5-c]pyridin-2-yl]ethanol]
212 to 213	CCc1nc2c(N)nc3cccnc3c2n1NC(C)C [Example 7, 2-Ethyl-N^1-isopropyl-1H-imidazo[4,5-c][1,5]naphthyridine-1,4-diamine]
94 to 97	CCOCc1nc2cnc(C)c(C)c2n1NC1CCOCC1 [Example 27, 2-Ethoxymethyl-6,7-dimethyl-N-(tetrahydropyranyl)-1H-imidazo[4,5-c]pyridin-1-amine]
139 to 141	CCOCc1nc2c(N)nc(C)cc2n1NC(C)C [Example 3, 2-(Ethoxymethyl)-N^1-isopropyl-6-methyl-1H-imidazo[4,5-c]pyridine-1,4-diamine]
